Experimental data published in the supplement of paper PMC10307832.

Assays:
Experiment in all cases: relative viability (nuclei count vs DMSO), 5 days (fraction); higher = more cells survive
[1] = compound: C[C@]12O[C@H](C[C@]1(O)CO)n1c3ccccc3c3c4c(c5c6ccccc6n2c5c31)CNC4=O [Lestaurtinib] + C[C@]1(O)C[C@@H](c2nc(-c3ccc4ccc(-c5ccccc5)nc4c3)c3c(N)nccn32)C1 [Linsitinib] (partner 1 µM)
Method in brief: (§1)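 A single step with final 0.05% Triton X-100, 1% formaldehyde and 1 ug/ml Hoechst fixed the cells and stained nuclei 5 days after treatment. Lung cancer cell lines in 1536-well plates had been treated by pin tool the day after seeding with one drug alone or a fixed anchor-drug dose plus five library-drug doses (not always all listed) in √10 steps, and nuclei were counted on 4× images. Relative viability is the ratio of nuclei in treated wells to nuclei in vehicle wells, taken as the median of duplicate plates.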

[2] = compound: C1/C(=C\C2=CC=CS2)/C(=O)/C(=C/C3=CC=CS3)/C1 + CC1(C)CCC(c2ccc(Cl)cc2)=C(CN2CCN(c3ccc(C(=O)NS(=O)(=O)c4ccc(N[C@H](CCN5CCOCC5)CSc5ccccc5)c(S(=O)(=O)C(F)(F)F)c4)cc3)CC2)C1 [Navitoclax] (partner 0.5 µM)
Method in brief: as §1

TPCA-1 + OSI-027 = compound: C1=CC(=CC=C1C2=CC(=C(S2)NC(=O)N)C(=O)N)F [TPCA-1] + COc1cccc2cc(-c3nc([C@H]4CC[C@H](C(=O)O)CC4)n4ncnc(N)c34)[nH]c12 [OSI-027] (partner 0.5 µM)
Method in brief: as §1

[3] = compound: C[C@]12O[C@H](C[C@]1(O)CO)n1c3ccccc3c3c4c(c5c6ccccc6n2c5c31)CNC4=O [Lestaurtinib] + CC(=O)Nc1cccc(-n2c(=O)n(C3CC3)c(=O)c3c(Nc4ccc(I)cc4F)n(C)c(=O)c(C)c32)c1 [Trametinib] (partner 0.02 µM)
Method in brief: as §1

Cell Line	relative viability ([1]; first compound 0.005 µM)	relative viability ([1]; first compound 0.01581 µM)	relative viability ([1]; first compound 0.05 µM)	relative viability ([1]; first compound 0.1581 µM)	relative viability ([1]; first compound 0.5 µM)	relative viability ([2]; first compound 0.2 µM)	relative viability ([2]; first compound 0.6325 µM)	relative viability ([2]; first compound 2 µM)	relative viability ([2]; first compound 6.325 µM)	relative viability ([2]; first compound 20 µM)	relative viability (TPCA-1 + OSI-027; first compound 0.04 µM)	relative viability (TPCA-1 + OSI-027; first compound 0.1265 µM)	relative viability (TPCA-1 + OSI-027; first compound 0.4 µM)	relative viability (TPCA-1 + OSI-027; first compound 1.265 µM)	relative viability (TPCA-1 + OSI-027; first compound 4 µM)	relative viability ([3]; first compound 0.005 µM)	relative viability ([3]; first compound 0.01581 µM)	relative viability ([3]; first compound 0.05 µM)	relative viability ([3]; first compound 0.1581 µM)	relative viability ([3]; first compound 0.5 µM)
HOP-62	0.838	0.994	0.995	1.05	0.891	0.985	1.23	0.8	0.952	1.06	0.872	0.748	0.96	0.574	0.716	0.409	0.446	0.389	0.351	0.319
HCC-366	0.678	0.694	0.28	0.257	0.109	1.09	1	0.955	1.05	1.05	1.07	0.8	0.914	0.52	0.0324	0.365	0.489	0.399	0.342	0.149
NCI-H2347	1.06	1.05	0.86	0.575	0.55	0.721	0.741	0.725	0.857	0.801	0.442	0.483	0.43	0.346	0.518	0.288	0.305	0.299	0.278	0.301
LXF-289	0.967	0.964	0.741	0.802	0.197	0.939	0.996	0.929	0.862	0.908	0.86	0.674	0.763	0.603	0.347	0.66	0.691	0.494	0.467	0.159
NCI-H1793	0.897	0.816	0.467	0.876	0.566	0.376	0.512	0.503	0.402	0.519	0.233	–	0.275	0.285	0.139	0.425	0.467	0.432	0.461	0.346
LU99A	0.46	0.443	0.3	0.284	0.21	0.734	0.796	0.814	0.788	0.793	0.325	0.297	0.322	0.232	0.258	0.55	0.522	0.439	0.231	0.145
PC-14	0.933	1.04	0.543	0.613	0.578	1.05	0.987	0.978	0.88	0.999	0.954	0.717	0.951	0.593	0.341	0.793	0.787	0.701	0.548	0.0827
NCI-H2085	0.952	1.01	1.04	0.901	0.819	1.13	1.16	1.03	1.15	1.09	0.978	0.689	0.731	0.462	0.354	0.476	0.514	0.558	0.652	0.46
